Measured values: patent publication US12370235B2, “Synthetic, non-natural antimicrobial peptides inspired by Staphylococcus auricularis delta toxin” (University of Saskatchewan, priority 2021, dated 2025)
Ends that are not written are not given here.

Assays:
[1] = tested on: Mannheimia haemolytica ATCC 33393; test: MIC, broth dilution; type: cell-based; settings: Table 11; highest concentration 25 μg/mL
Protocol: (§1) MIC determination. MICs were measured using peptides with 95% purity. For bacterial studies, cation-adjusted Mueller Hinton (MH) broth was used as the growth medium whereas Yeast Peptone Dextrose (YPD; 10 g/L yeast extract, 20 g/L peptone, 20 g/L dextrose) was used for Candida spp. and other yeast. Microorganisms were diluted to an optical density of […] in MH or YPD broth and a 180 μl volume was mixed with 20 μl of peptide arrayed as a 2-fold dilution series in a flat-bottom 96-well microtitre plate. A control was performed using 20 μl of sterile water. Plates were incubated as standing cultures overnight at 37° C.
(§2) Determination of minimum inhibitory concentrations. The MICs were measured for bioactive peptides identified from the initial screen. For bacterial studies, cation-adjusted Mueller Hinton (MH) broth was used as the growth medium whereas YPD was used for C. albicans. Bacterial cultures were diluted to a OD value of 6×10^−4 in MH broth and a 180 μl volume was mixed with 20 μl of peptide arrayed as 2-fold dilution series in a 96-well plate. For the positive control, 20 μl of sterile water was used. Plates were incubated as standing cultures overnight at 37° C. The lowest peptide concentration that resulted no observed microbial growth after an overnight treatment was defined as the MIC.
The ability of STIP3 variants to inhibit the growth of Mannheimia haemolytica ATCC 33393 was evaluated. This included an alanine scan of STIP3-1 (FIG. 8 & Table 10) as well as 30 rationally-designed STIPs that were evaluated in the preceding Examples against other pathogens (Table 11). Substitutions at a greater number of sites were tolerated in the context of antimicrobial activity. Moreover, the inclusion of basic natural and unnatural amino acids (e.g. lysine, ornithine, and arginine) at positions 3, 4 and 11 (i.e. X1, X2, and X4 of SEQ ID NO: 32) to afford a more uniformly cationic peptide increased activity against M. haemolytica.

[2] = tested on: Saccharomyces cerevisiae AR 400; test: MIC, YPD broth, CDC and FDA AR Candida isolate panel; type: cell-based; settings: Table 9 below the line: only 200 or 100 μg/mL tested; values reported as 100 are ≤100 μg/mL
Protocol: as §1

[3] = tested on: Candida duobushaemulonii AR 394; test: as above; type: cell-based; settings: Table 9 below the line: only 200 or 100 μg/mL tested; values reported as 100 are ≤100 μg/mL
Protocol: as §1

[4] = tested on: Candida haemulonii AR 395; test: as above; type: cell-based; settings: Table 9 below the line: only 200 or 100 μg/mL tested; values reported as 100 are ≤100 μg/mL
Protocol: as §1

Candida krusei AR 397 = test: as above; type: cell-based; settings: Table 9 below the line: only 200 or 100 μg/mL tested; values reported as 100 are ≤100 μg/mL
Protocol: as §1

[5] = tested on: Candida duobushaemulonii AR 392; test: as above; type: cell-based; settings: Table 9 below the line: only 200 or 100 μg/mL tested; values reported as 100 are ≤100 μg/mL
Protocol: as §1

[6] = tested on: Candida duobushaemulonii AR 391; test: as above; type: cell-based; settings: Table 9 below the line: only 200 or 100 μg/mL tested; values reported as 100 are ≤100 μg/mL
Protocol: as §1

[7] = tested on: Candida lusitaniae AR 398; test: as above; type: cell-based; settings: Table 9 below the line: only 200 or 100 μg/mL tested; values reported as 100 are ≤100 μg/mL
Protocol: as §1

[8] = tested on: Saccharomyces cerevisiae AR 399; test: as above; type: cell-based; settings: Table 9 below the line: only 200 or 100 μg/mL tested; values reported as 100 are ≤100 μg/mL
Protocol: as §1

[9] = tested on: Candida haemulonii AR 393; test: as above; type: cell-based; settings: Table 9 below the line: only 200 or 100 μg/mL tested; values reported as 100 are ≤100 μg/mL
Protocol: as §1

Kodamae ohmeri AR 396 = test: as above; type: cell-based; settings: Table 9 below the line: only 200 or 100 μg/mL tested; values reported as 100 are ≤100 μg/mL
Protocol: as §1

C. albicans MYA-2876 = test: MIC, YPD broth; type: cell-based, Candida albicans; settings: Table 8
Protocol: as §1, §2

[10] = tested on: S. aureus ATCC BAA-41 (MRSA SCCmec type II); test: MIC, broth dilution; type: cell-based, Staphylococcus aureus; settings: Table 5; STIP3 variants, highest concentration 100 μg/mL
Protocol: as §1, §2

[11] = tested on: S. aureus ATCC BAA-42 (MRSA SCCmec type VI); test: MIC, broth dilution; type: cell-based, Staphylococcus aureus; settings: Table 5; STIP3 variants, highest concentration 100 μg/mL
Protocol: as §1, §2

[12] = tested on: S. aureus ATCC 33592 (MRSA SCCmec type III); test: MIC, broth dilution; type: cell-based, Staphylococcus aureus; settings: Table 5; STIP3 variants, highest concentration 100 μg/mL
Protocol: as §1, §2

[13] = tested on: S. aureus ATCC BAA-44 (MRSA SCCmec type I); test: MIC, broth dilution; type: cell-based, Staphylococcus aureus; settings: Table 5; STIP3 variants, highest concentration 100 μg/mL
Protocol: as §1, §2

S. aureus ATCC 29213 = test: MIC, broth dilution; type: cell-based, Staphylococcus aureus; settings: Table 5; STIP3 variants, highest concentration 100 μg/mL
Protocol: as §1, §2

[14] = tested on: S. aureus ATCC BAA-1683 (MRSA SCCmec type IV); test: MIC, broth dilution; type: cell-based, Staphylococcus aureus; settings: Table 5; STIP3 variants, highest concentration 100 μg/mL
Protocol: as §1, §2

[15] = tested on: S. aureus ATCC BAA-2094 (MRSA SCCmec type V); test: MIC, broth dilution; type: cell-based, Staphylococcus aureus; settings: Table 5; STIP3 variants, highest concentration 100 μg/mL
Protocol: as §1, §2

[16] = tested on: S. aureus ATCC BAA-2313 (MRSA SCCmec type XI); test: MIC, broth dilution; type: cell-based, Staphylococcus aureus; settings: Table 5; STIP3 variants, highest concentration 100 μg/mL
Protocol: as §1, §2

Row | Sequence | MIC (μg/mL) M. haemolytica [1] | MIC (μg/mL) Saccharomyces cerevisiae AR 400 [2] | MIC (μg/mL) Candida duobushaemulonii AR 394 [3] | MIC (μg/mL) Candida haemulonii AR 395 [4] | MIC (μg/mL) Candida krusei AR 397 (Candida krusei AR 397) | MIC (μg/mL) Candida duobushaemulonii AR 392 [5] | MIC (μg/mL) Candida duobushaemulonii AR 391 [6] | MIC (μg/mL) Candida lusitaniae AR 398 [7] | MIC (μg/mL) Saccharomyces cerevisiae AR 399 [8] | MIC (μg/mL) Candida haemulonii AR 393 [9] | MIC (μg/mL) Kodamae ohmeri AR 396 (Kodamae ohmeri AR 396) | MIC C. albicans MYA-2876 (C. albicans MYA-2876) | MIC S. aureus ATCC BAA 41 (II) [10] | MIC S. aureus ATCC BAA 42 (VI) [11] | MIC S. aureus ATCC 33592 (III) [12] | MIC S. aureus ATCC BAA 44 (I) [13] | MIC S. aureus ATCC 29213 (S. aureus ATCC 29213) | MIC S. aureus ATCC BAA 1683 (IV) [14] | MIC S. aureus ATCC BAA 2094 (V) [15] | MIC S. aureus ATCC BAA 2313 (XI) [16]
1 | TVDGLVKWILATVKKFA [STIP3-17, TVDGLVKWILATVKKFA] | > (> symbol indicates that no inhibition was observed at the highest concentration of peptide tested: 25 μg/mL) | ≤ 100 µg/mL | > (values below the line were determined using two concentrations of peptide 200 or 100 μg/mL) | > (values below the line were determined using two concentrations of peptide 200 or 100 μg/mL) | ≤ 100 µg/mL | > (values below the line were determined using two concentrations of peptide 200 or 100 μg/mL) | > (values below the line were determined using two concentrations of peptide 200 or 100 μg/mL) | ≤ 100 µg/mL | ≤ 100 µg/mL | > (values below the line were determined using two concentrations of peptide 200 or 100 μg/mL) | > (values below the line were determined using two concentrations of peptide 200 or 100 μg/mL) | 12.5 µg/mL | > (no inhibition was observed at the highest concentration of peptide tested: 100 μg/mL for the STIP3 variants) | > (no inhibition was observed at the highest concentration of peptide tested: 100 μg/mL for the STIP3 variants) | > (no inhibition was observed at the highest concentration of peptide tested: 100 μg/mL for the STIP3 variants) | > (no inhibition was observed at the highest concentration of peptide tested: 100 μg/mL for the STIP3 variants) | > (no inhibition was observed at the highest concentration of peptide tested: 100 μg/mL for the STIP3 variants) | > (no inhibition was observed at the highest concentration of peptide tested: 100 μg/mL for the STIP3 variants) | > (no inhibition was observed at the highest concentration of peptide tested: 100 μg/mL for the STIP3 variants) | > (no inhibition was observed at the highest concentration of peptide tested: 100 μg/mL for the STIP3 variants)
2 | TVRALVRWILRTVARFA [STIP3-23, TVRALVRWILRTVARFA] | 12.5 µg/mL | ≤ 100 µg/mL | > (values below the line were determined using two concentrations of peptide 200 or 100 μg/mL) | > (values below the line were determined using two concentrations of peptide 200 or 100 μg/mL) | > (values below the line were determined using two concentrations of peptide 200 or 100 μg/mL) | > (values below the line were determined using two concentrations of peptide 200 or 100 μg/mL) | > (values below the line were determined using two concentrations of peptide 200 or 100 μg/mL) | ≤ 100 µg/mL | ≤ 100 µg/mL | > (values below the line were determined using two concentrations of peptide 200 or 100 μg/mL) | > (values below the line were determined using two concentrations of peptide 200 or 100 μg/mL) | > (> symbol indicates that no inhibition was observed at the highest concentration of peptide tested: 100 μg/mL) | 6.25 µg/mL | 50 µg/mL | 25 µg/mL | 25 µg/mL | 25 µg/mL | 25 µg/mL | 50 µg/mL | 25 µg/mL
3 | TVGGLVKWILDTVKKFW [STIP3-6, TVGGLVKWILDTVKKFW] | 25 µg/mL | ≤ 100 µg/mL | > (values below the line were determined using two concentrations of peptide 200 or 100 μg/mL) | > (values below the line were determined using two concentrations of peptide 200 or 100 μg/mL) | ≤ 100 µg/mL | > (values below the line were determined using two concentrations of peptide 200 or 100 μg/mL) | > (values below the line were determined using two concentrations of peptide 200 or 100 μg/mL) | ≤ 100 µg/mL | ≤ 100 µg/mL | > (values below the line were determined using two concentrations of peptide 200 or 100 μg/mL) | > (values below the line were determined using two concentrations of peptide 200 or 100 μg/mL) | 50 µg/mL | 12.5 µg/mL | 12.5 µg/mL | 12.5 µg/mL | 25 µg/mL | 12.5 µg/mL | 12.5 µg/mL | 12.5 µg/mL | 12.5 µg/mL
4 | TVAGLVKWILATVKKFA [STIP3-15, TVAGLVKWILATVKKFA] | 25 µg/mL | ≤ 100 µg/mL | > (values below the line were determined using two concentrations of peptide 200 or 100 μg/mL) | > (values below the line were determined using two concentrations of peptide 200 or 100 μg/mL) | ≤ 100 µg/mL | > (values below the line were determined using two concentrations of peptide 200 or 100 μg/mL) | > (values below the line were determined using two concentrations of peptide 200 or 100 μg/mL) | ≤ 100 µg/mL | ≤ 100 µg/mL | > (values below the line were determined using two concentrations of peptide 200 or 100 μg/mL) | ≤ 100 µg/mL | 25 µg/mL | 50 µg/mL | 50 µg/mL | 12.5 µg/mL | 25 µg/mL | 25 µg/mL | 25 µg/mL | 25 µg/mL | 50 µg/mL
